Consider 47 compounds from BindingDB's records for doi:10.7270/Q2TX3CTT (Broad Institute, 2010).

Each structure is given as a SMILES string.

Sequence of Glycogen synthase kinase-3 beta (P49841 whole entry): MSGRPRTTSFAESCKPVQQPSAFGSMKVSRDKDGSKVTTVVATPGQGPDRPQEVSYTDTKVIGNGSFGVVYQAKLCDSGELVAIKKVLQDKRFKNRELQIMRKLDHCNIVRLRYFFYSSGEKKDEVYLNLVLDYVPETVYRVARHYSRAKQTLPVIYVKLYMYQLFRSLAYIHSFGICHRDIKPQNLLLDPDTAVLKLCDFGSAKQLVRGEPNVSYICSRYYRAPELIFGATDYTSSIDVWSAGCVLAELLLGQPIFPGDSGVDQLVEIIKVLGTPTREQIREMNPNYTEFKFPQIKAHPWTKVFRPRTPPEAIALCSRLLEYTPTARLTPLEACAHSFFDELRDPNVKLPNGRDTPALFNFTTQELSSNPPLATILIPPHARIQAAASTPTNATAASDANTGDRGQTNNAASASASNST

This assay concerns the target Glycogen synthase kinase-3 beta (Homo sapiens, UniProt P49841). As to the kind of experiment: GSK3beta kinase inhibitor potency, dose response, biochemical, luminescence, cell-free homogeneous, retest (AID 434954).
`CC(C)CNc1nc(N)c([N+](=O)[O-])c(N2CCCCCC2)n1` [6-(azepan-1-yl)-N2-(2-methylpropyl)-5-nitro-pyrimidine-2,4-diamine] gave an EC50 of 98 µM.

Consider `CN(C)/C=C/C(=O)c1cnc(-c2cccc(Cl)c2)s1` [MLS000706958], for which the EC50 was over 300 µM.

`CSc1nc(SCC(=O)NC(c2ccccc2)c2ccccc2)c2c3c(sc2n1)CN(C)CC3` came in with a concentration for a half-maximal effect (EC50) of over 300 µM.

On to `CCOC(=O)C(C)Sc1ccc2nnc(-c3ccc(F)cc3)n2n1` (configuration not stated) [2-[[3-(4-fluorophenyl)-[1,2,4]triazolo[4,3-b]pyridazin-6-yl]thio]propanoic acid ethyl ester], for which the concentration giving a half-maximal response (EC50) amounted to 19.3 µM. This counts as double-digit micromolar.

In turn, `O=C(CCC1COc2ccccc2O1)NCC1COc2ccccc2O1` (configuration not stated) showed an EC50 of over 300 µM.

As to `COc1ccc(OC)c(Nc2c3ccccc3nc3ccccc23)c1` [N-(2,5-dimethoxyphenyl)-9-acridinamine], the EC50 was over 300 µM.

`Cc1ccc(NC(=O)NCCCN2CCCC2=O)cc1C` [SMR000677961] came in with an EC50 of over 300 µM.

The compound `CC(=O)c1ccc(Cc2cnc(N)s2)cc1` [1-{4-[(2-amino-1,3-thiazol-5-yl)methyl]phenyl}ethanone] registered an EC50 of over 300 µM.

`Nc1nc(NCCCN2CCOCC2)nc(Nc2ccc(Cl)cc2)c1[N+](=O)[O-]` [N'-(4-Chloro-phenyl)-N-(3-morpholin-4-yl-propyl)-5-nitro-pyrimidine-2,4,6-triamine] yielded an EC50 of 1.47 µM.

`COC(=O)c1nnn(-c2nonc2N)c1COc1ccc(C=O)cc1OC` [methyl 1-(4-azanyl-1,2,5-oxadiazol-3-yl)-5-[(4-methanoyl-2-methoxy-phenoxy)methyl]-1,2,3-triazole-4-carboxylate]: the EC50 came out at 25.9 µM.

`O=C(CCS(=O)(=O)c1ccc(Br)cc1)Nc1ccc(Cl)cc1F` [3-(4-bromophenyl)sulfonyl-N-(4-chloranyl-2-fluoranyl-phenyl)propanamide] yielded an EC50 of over 300 µM.

Consider `CCCc1c(NC(=O)Nc2ccc(F)cc2)cnn1-c1ccccc1` [1-(4-fluorophenyl)-3-(1-phenyl-5-propylpyrazol-4-yl)urea], for which the EC50 was over 300 µM.

`CN(C(=O)CSc1nnc(-c2c[nH]c3ccccc23)o1)C1CCS(=O)(=O)C1` (configuration not stated) [N-(1,1-dioxothiolan-3-yl)-2-[[(2Z)-2-indol-3-ylidene-3H-1,3,4-oxadiazol-5-yl]sulfanyl]-N-methylacetamide] displayed an EC50 of over 300 µM.

On to `CC(C)CC(=O)Nc1ccccc1-c1nnn(CC(=O)N2CCc3ccccc3C2)n1` [SMR000122537], for which the EC50 was over 300 µM.

`COc1ccc(Nc2oc(COc3ccccc3F)nc2C#N)cc1`: the EC50 was over 300 µM.

In the case of `CCOC(=O)c1nnn(-c2nonc2N)c1CSc1nnc(N)s1` [MLS000624994], the EC50 is over 300 µM.

The compound `COc1ccc(-c2cn3c(C)c(C(=O)Nc4ccncc4)sc3n2)cc1` [6-(4-methoxyphenyl)-3-methyl-N-(4-pyridyl)imidazo[2,1-b]thiazole-2-carboxamide] displayed a concentration giving a half-maximal response (EC50) of over 300 µM.

The compound `CC(C)(C)c1ccc(C=Nn2cnnc2)cc1` [MLS000660819] returned an EC50 of over 300 µM.

As to `C[N+](C)=c1ccn(CC(=O)N2c3ccccc3Sc3ccccc32)cc1`, the EC50 is over 300 µM.

For the compound `COC(=O)c1ccc(NC(=O)CCN2CCN(Cc3ccccc3)CC2)cc1` [4-[3-(4-Benzyl-piperazin-1-yl)-propionylamino]-benzoic acid methyl ester], the EC50 is over 300 µM.

`CCOc1ccc(CNC(=O)C2CCN(c3nnc(C)c4c(C)n(-c5ccc(C)cc5)nc34)CC2)cc1` [MLS001028751] displayed an EC50 of over 300 µM.

Turning to `CCCCCCNC(=O)C(C(=O)OCC)C1CCCCC1` (configuration not stated) [ethyl 2-cyclohexyl-3-(hexylamino)-3-oxidanylidene-propanoate], the EC50 is over 300 µM.

`Cc1ccc(SCC(=O)N2CC(C)OC(C)C2)cc1` (configuration not stated) registered an EC50 of over 300 µM.

In turn, `CC(C)N1CCc2c(sc(NC(=O)CN3C(=O)c4ccccc4C3=O)c2C(N)=O)C1` returned an EC50 of over 300 µM.

As to `O=C(O)Cc1sc(N[N-][CH+]c2ccc(-c3ccc(Cl)c([N+](=O)[O-])c3)o2)nc1O` [MLS000689975], the EC50 is over 300 µM.

In turn, `COc1ccc(C(C)(C)C)cc1NS(=O)(=O)c1cccc2cccnc12` yielded an EC50 of over 300 µM.

`CCn1c(S)nnc1-c1ccc([N+](=O)[O-])cc1` [SMR000176027]: the 50% effective concentration (EC50) was over 300 µM.

Compound `CCOC(=O)COc1ccc(C(=O)c2ccccc2)c(O)c1` [(4-Benzoyl-3-hydroxy-phenoxy)-acetic acid ethyl ester] showed an EC50 of over 300 µM.

With `CCn1c(SCC(=O)Nc2nccs2)nnc1C1CC1` [2-[(5-cyclopropyl-4-ethyl-1,2,4-triazol-3-yl)sulfanyl]-N-(1,3-thiazol-2-yl)ethanamide], the EC50 was over 300 µM.

For `O=C(COc1ccc(S(=O)(=O)N2CCCC2)cc1Cl)Nc1ccc2c(c1)OCO2` [MLS000052177], the EC50 was over 300 µM.

Regarding `O=C1Nc2ccccc2C1=NN1CCOCC1` [3-(morpholin-4-ylamino)indol-2-one], the EC50 is over 300 µM.

Regarding `COC(=O)c1ccc2nc(NC(=O)C3CC3)sc2c1` [2-(cyclopropanecarbonylamino)-1,3-benzothiazole-6-carboxylic acid methyl ester], the EC50 was over 300 µM.

In turn, `Fc1ccc(CSc2nnc(-c3ccco3)o2)cc1` gave an EC50 of over 300 µM.

`O=C(/[O+]=N/[CH-]c1ccc(N2CCCCC2)c([N+](=O)[O-])c1)c1c(F)cccc1F` [MLS000326582] gave an EC50 of over 300 µM.

As to `CCOC(=O)C1C(C)=Nc2ncnn2C1c1ccccc1F` (configuration not stated) [ethyl 7-(2-fluorophenyl)-5-methyl-4,7-dihydro[1,2,4]triazolo[1,5-a]pyrimidine-6-carboxylate], the EC50 is over 300 µM.

In the case of `O=C(Cn1cc[n+](CC(=O)c2ccc(Cl)cc2Cl)c1)c1ccc(Cl)cc1Cl` [1,3-Bis-[2-(2,4-dichloro-phenyl)-2-oxo-ethyl]-3H-imidazol-1-ium], the EC50 was over 300 µM.

In turn, `Nc1nc(NCC2CCCO2)nc(NCC2CCCO2)c1[N+](=O)[O-]` (configuration not stated) gave an EC50 of 12.2 µM.

In the case of `O=c1cc(-c2ccccc2Cl)oc2ccc([N+](=O)[O-])c(O)c12` [2-(2-chlorophenyl)-5-hydroxy-6-nitrochromen-4-one], the EC50 was over 300 µM.

Compound `N#Cc1c(-c2cccs2)cc(-c2cccnc2)nc1N` [SMR000043147] showed an EC50 of 10.4 µM.

For `Nc1nc(NCCc2ccccc2)nc(NCCO)c1[N+](=O)[O-]` [MLS001213372], the EC50 stood at 2.01 µM.

`O=C(OCCN1CCCCC1)c1ccc(O)cc1` [4-hydroxybenzoic acid 2-(1-piperidinyl)ethyl ester] displayed a half-maximal effective concentration (EC50) of over 300 µM.

In turn, `N#Cc1ccccc1NC(=O)CSc1nnc(-c2ccncc2)o1` came in with an EC50 of over 300 µM.

Turning to `CCN(CC)C(=O)Cn1cc(C(=O)C(=O)Nc2ccc3c(c2)OCCO3)c2ccccc21`, the EC50 is over 300 µM.

Regarding `CCOC(=O)CC(=O)CSc1ccc2nnc(-c3ccccc3)n2n1` [ethyl 3-oxo-4-[(3-phenyl[1,2,4]triazolo[4,3-b]pyridazin-6-yl)thio]butanoate], the EC50 was over 300 µM.

In turn, `OCCNc1nc(-c2cccnc2)nc2ccccc12` [MLS000107346] displayed an EC50 of over 300 µM.

`O=NCc1cn(-c2ccccc2)nc1-c1cccnc1` [N-[(1-phenyl-3-pyridin-3-ylpyrazol-4-yl)methylidene]hydroxylamine]: the EC50 was 6.45 µM.

Compound `O=[N+]([O-])c1ccc(N2CCCCCC2)c([N+](=O)[O-])c1` [1-(2,4-Dinitro-phenyl)-azepane] showed an EC50 of over 300 µM.

As usually defined, the EC50 is the concentration at which the effect is half-maximal. Low readings indicate greater potency, high ones weaker potency.
